Consider one substance from publication PMC11452689 (Communications Biology, 2024).

This assay can be described thus: LUV membrane polarisation, oxonol VI, Na+/K+ gradient. Type of assay: biochemical. Particulars: 100 mM NaCl inside, 100 mM KCl outside, pH 7.2, 0.5 MIC.

With valinomycin, the “diffusion potential in the cation gradient LUV model, in words” value is “inside positive polarisation”.
